This note sets out measurements from patent US20180141939A1, “SOLID FORMS OF A BET INHIBITOR” (Gilead Sciences, Inc., priority 2016, published 2018).

Type in all cases: physicochemical
Data set [1] can be described thus: Dynamic vapor sorption (DVS) moisture uptake. The conditions noted are these: for hygroscopicity (DVS analysis): classification in words; for moisture uptake (DVS): at about 90% RH.
The nature of data set [2]: Relative stability of solid forms (competitive slurries). As to conditions: for thermodynamic / physical stability of the solid form: statement in words.
Data set [3] is described as follows: Kinetic aqueous solubility / solubility in water of salt and co-crystal forms.
The nature of data set [4]: Aqueous vapor stress (high humidity stress, about 85% RH), deliquescence. As to conditions: for deliquescence when stressed at about 85% RH: about 24 h where stated; for deliquescence at elevated RH: elevated relative humidity. The method, then:
Crystalline forms of Compound I were analyzed by at least one of X-ray powder diffraction (XRPD), differential scanning calorimetry (DSC), thermogravimetric analysis (TGA), dynamic vapor sorption (DVS), solution proton nuclear magnetic resonance spectroscopy (^1H NMR), KF titration, and aqueous vapor stress experiments. XRPD patterns of Compound I were collected with a PANalytical X'Pert PRO MPD diffractometer using mostly the following experimental setting: 45 kV, 40 mA, Kα1=1.5406 Å, scan range 2-40° 2θ, step size 0.0167° 2θ. The DSC analysis was conducted on a TA Instruments Q2000 differential scanning calorimeter using 10° C./min heating rate over the 20° C. to 250° C. temperature range or above. The TGA analysis was conducted on a TA Instruments 2950 thermogravimetric analyzer using a 10° C./min heating rate over the 20° C. to 350° C. temperature range. ^1H NMR spectra were acquired with an Agilent DD2-400 spectrometer using DMSO-d6 with tetramethylsilane (TMS). KF analysis was performed using a Mettler Toledo DL39 Karl Fischer titrator with a Stromboli drying oven attachment set at about 110° C. Aqueous vapor stress experiments were conducted by placing a sample in a 85% RH jar for a specified duration.

Counter-ions that a name gives are not always drawn.

Turning to `Cc1noc(C)c1-c1cc(C(O)(c2ccccn2)c2ccccn2)c2nc(C3CC3)[nH]c2c1` [Compound I phosphate Form II, (2-cyclopropyl-6-(3,5-dimethylisoxazol-4-yl)-1H-benzo[d]imidazol-4-yl)di(pyridin-2-yl)methanol], the “hygroscopicity (DVS analysis)” value in data set [1] is on record as “moderately hygroscopic”. Also, the “relative stability in competitive slurries with Compound I phosphate Form I” value (“relative stability” below) in data set [2] (MeOH/IPA, MeOH/EtOAc or MeOH/IPAc, overnight slurry at RT) is on record as “less stable than Compound I phosphate Form I at ambient conditions”. As to `Cc1noc(C)c1-c1cc(C(O)(c2ccccn2)c2ccccn2)c2nc(C3CC3)[nH]c2c1` [Compound I sulfate Material B, (2-cyclopropyl-6-(3,5-dimethylisoxazol-4-yl)-1H-benzo[d]imidazol-4-yl)di(pyridin-2-yl)methanol], the kinetic aqueous solubility result in data set [3] is listed as “about 4 mg/mL”. Besides, the “deliquescence when stressed at about 85% RH” value in data set [4] is on record as “no evidence of deliquescence”. Regarding `Cc1noc(C)c1-c1cc(C(O)(c2ccccn2)c2ccccn2)c2nc(C3CC3)[nH]c2c1` [Compound I phosphate Form IV, (2-cyclopropyl-6-(3,5-dimethylisoxazol-4-yl)-1H-benzo[d]imidazol-4-yl)di(pyridin-2-yl)methanol], in data set [2] (MeOH/EtOAc solvent system), the “relative stability” value is recorded as “complete conversion of Compound I phosphate Form IV to Compound I phosphate Form I”.

As for `Cc1noc(C)c1-c1cc(C(O)(c2ccccn2)c2ccccn2)c2nc(C3CC3)[nH]c2c1` [mixture of Compound I sulfate Material A and Compound I sulf] [(2-cyclopropyl-6-(3,5-dimethylisoxazol-4-yl)-1H-benzo[d]imidazol-4-yl)di(pyridin-2-yl)methanol], in data set [3], the kinetic aqueous solubility result is listed as “about 4 mg/mL”. Consider `Cc1noc(C)c1-c1cc(C(O)(c2ccccn2)c2ccccn2)c2nc(C3CC3)[nH]c2c1` [Compound I edisylate Material A, (2-cyclopropyl-6-(3,5-dimethylisoxazol-4-yl)-1H-benzo[d]imidazol-4-yl)di(pyridin-2-yl)methanol], for which the kinetic aqueous solubility result in data set [3] is on record as “about 1 mg/mL”. The “deliquescence when stressed at about 85% RH” value in data set [4] was “does not show any signs of deliquescence”. For `Cc1noc(C)c1-c1cc(C(O)(c2ccccn2)c2ccccn2)c2nc(C3CC3)[nH]c2c1` [Compound I tosylate Form I, (2-cyclopropyl-6-(3,5-dimethylisoxazol-4-yl)-1H-benzo[d]imidazol-4-yl)di(pyridin-2-yl)methanol], the kinetic aqueous solubility entry in data set [3] was “about 3 mg/mL”. Further, the “deliquescence when stressed at about 85% RH” value in data set [4] is recorded as “does not show any evidence of deliquescence”. For the compound `Cc1noc(C)c1-c1cc(C(O)(c2ccccn2)c2ccccn2)c2nc(C3CC3)[nH]c2c1` [Compound I phosphate Form V, (2-cyclopropyl-6-(3,5-dimethylisoxazol-4-yl)-1H-benzo[d]imidazol-4-yl)di(pyridin-2-yl)methanol], the “relative stability” value in data set [2] (MeOH/EtOAc solvent system) is on record as “complete conversion of Compound I phosphate Form V to Compound I phosphate Form I”.

On to `Cc1noc(C)c1-c1cc(C(O)(c2ccccn2)c2ccccn2)c2nc(C3CC3)[nH]c2c1` [Compound I besylate Material A, (2-cyclopropyl-6-(3,5-dimethylisoxazol-4-yl)-1H-benzo[d]imidazol-4-yl)di(pyridin-2-yl)methanol], for which the kinetic aqueous solubility result in data set [3] is given as “about 1 mg/mL”. In data set [4], the “deliquescence when stressed at about 85% RH” value is on record as “does not show any signs of deliquescence”. Regarding `Cc1noc(C)c1-c1cc(C(O)(c2ccccn2)c2ccccn2)c2nc(C3CC3)[nH]c2c1` [Compound I tartrate Material A, (2-cyclopropyl-6-(3,5-dimethylisoxazol-4-yl)-1H-benzo[d]imidazol-4-yl)di(pyridin-2-yl)methanol], in data set [3], the kinetic aqueous solubility result is on record as “about 15 mg/mL”. For the same compound, in data set [4], the “deliquescence when stressed at about 85% RH” value is “does not deliquesce”. On to `Cc1noc(C)c1-c1cc(C(O)(c2ccccn2)c2ccccn2)c2nc(C3CC3)[nH]c2c1` [Compound I Form II, (2-cyclopropyl-6-(3,5-dimethylisoxazol-4-yl)-1H-benzo[d]imidazol-4-yl)di(pyridin-2-yl)methanol], for which, in data set [2], the “thermodynamic / physical stability of the solid form” value was “unstable mono-IPA solvate that may convert to Compound I Form I at ambient conditions”. Regarding `Cc1noc(C)c1-c1cc(C(O)(c2ccccn2)c2ccccn2)c2nc(C3CC3)[nH]c2c1` [Compound I Form I, (2-cyclopropyl-6-(3,5-dimethylisoxazol-4-yl)-1H-benzo[d]imidazol-4-yl)di(pyridin-2-yl)methanol], in data set [1], the “moisture uptake (DVS)” value is given as “about 0.4%” and the “hygroscopicity (DVS analysis)” value is recorded as “slightly hygroscopic”. In data set [2], the “thermodynamic / physical stability of the solid form” value is reported as “most thermodynamically stable form of Compound I”.

On to `Cc1noc(C)c1-c1cc(C(O)(c2ccccn2)c2ccccn2)c2nc(C3CC3)[nH]c2c1` [Compound I napsylate Material A, (2-cyclopropyl-6-(3,5-dimethylisoxazol-4-yl)-1H-benzo[d]imidazol-4-yl)di(pyridin-2-yl)methanol], for which the “deliquescence when stressed at about 85% RH” value in data set [4] is “does not deliquesce”. As for `Cc1noc(C)c1-c1cc(C(O)(c2ccccn2)c2ccccn2)c2nc(C3CC3)[nH]c2c1` [Compound I phosphate Form III, (2-cyclopropyl-6-(3,5-dimethylisoxazol-4-yl)-1H-benzo[d]imidazol-4-yl)di(pyridin-2-yl)methanol], in data set [1], the “moisture uptake (DVS)” value is “about 0.7%” and the “hygroscopicity (DVS analysis)” value was “slightly hygroscopic”. Also, in data set [3] (water), the solubility (commonly the dissolved amount per volume that the medium holds) is about 6000 µg/mL. Turning to `Cc1noc(C)c1-c1cc(C(O)(c2ccccn2)c2ccccn2)c2nc(C3CC3)[nH]c2c1` [Compound I gentisate Material A, (2-cyclopropyl-6-(3,5-dimethylisoxazol-4-yl)-1H-benzo[d]imidazol-4-yl)di(pyridin-2-yl)methanol], the “deliquescence when stressed at about 85% RH” value in data set [4] is “does not deliquesce”.

For the compound `Cc1noc(C)c1-c1cc(C(O)(c2ccccn2)c2ccccn2)c2nc(C3CC3)[nH]c2c1` [Compound I mesylate Material A, (2-cyclopropyl-6-(3,5-dimethylisoxazol-4-yl)-1H-benzo[d]imidazol-4-yl)di(pyridin-2-yl)methanol], the kinetic aqueous solubility entry in data set [3] is listed as “about 5 mg/mL”. In data set [4], the “deliquescence at elevated RH” value was “shows evidence of deliquescence”. Consider `Cc1noc(C)c1-c1cc(C(O)(c2ccccn2)c2ccccn2)c2nc(C3CC3)[nH]c2c1` [Compound I mesylate Material C, (2-cyclopropyl-6-(3,5-dimethylisoxazol-4-yl)-1H-benzo[d]imidazol-4-yl)di(pyridin-2-yl)methanol], for which, in data set [3], the kinetic aqueous solubility result is given as “about 13 mg/mL”. Besides, the “deliquescence at elevated RH” value in data set [4] was “a tendency to deliquesce”.

Take `Cc1noc(C)c1-c1cc(C(O)(c2ccccn2)c2ccccn2)c2nc(C3CC3)[nH]c2c1` [Compound I sulfate Material A, (2-cyclopropyl-6-(3,5-dimethylisoxazol-4-yl)-1H-benzo[d]imidazol-4-yl)di(pyridin-2-yl)methanol]: the kinetic aqueous solubility result in data set [3] is on record as “about 4 mg/mL”. Moreover, the “deliquescence when stressed at about 85% RH” value in data set [4] is “no evidence of deliquescence”. `Cc1noc(C)c1-c1cc(C(O)(c2ccccn2)c2ccccn2)c2nc(C3CC3)[nH]c2c1` [Compound I mesylate Material G, (2-cyclopropyl-6-(3,5-dimethylisoxazol-4-yl)-1H-benzo[d]imidazol-4-yl)di(pyridin-2-yl)methanol]: in data set [1], the “moisture uptake (DVS)” value was “about 25%” and the “hygroscopicity (DVS analysis)” value is reported as “very hygroscopic”. In the case of `Cc1noc(C)c1-c1cc(C(O)(c2ccccn2)c2ccccn2)c2nc(C3CC3)[nH]c2c1` [Compound I xinafoate Form I, (2-cyclopropyl-6-(3,5-dimethylisoxazol-4-yl)-1H-benzo[d]imidazol-4-yl)di(pyridin-2-yl)methanol], in data set [4], the “deliquescence when stressed at about 85% RH” value is “does not deliquesce”.

For the compound `Cc1noc(C)c1-c1cc(C(O)(c2ccccn2)c2ccccn2)c2nc(C3CC3)[nH]c2c1` [Compound I HCl Material B, (2-cyclopropyl-6-(3,5-dimethylisoxazol-4-yl)-1H-benzo[d]imidazol-4-yl)di(pyridin-2-yl)methanol], the kinetic aqueous solubility result in data set [3] is on record as “about 6 mg/mL”. In addition, the “deliquescence when stressed at about 85% RH” value in data set [4] was “evidence of deliquescence”.
